Values quoted from earlier work as cited in patent US20030144252A1, “Combination product comprising a non-steroidal antiandrogen and an egfr tyrosine kinase inhibitor” (priority 2000, published 2003).

Experiments:
[1] = test system: LNCaP prostate cancer cell line
androgen receptor = conditions: LNCaP prostate cancer cell line

Compound | block of EGF induced cell growth [1] | block of HER2/neu protein induced activation of the androgen receptor (androgen receptor)
CC(O)(CS(=O)(=O)c1ccc(F)cc1)C(=O)Nc1ccc(C#N)c(C(F)(F)F)c1 (centres unmarked) [bicalutamide, 4′-cyano-3-(4-fluorophenylsulphonyl)-2-hydroxy-2-methyl-3′-(trifluoromethyl)propionanilide] | could partially block | 
CC(C)(O)C(=O)Nc1ccc([N+](=O)[O-])c(C(F)(F)F)c1 [hydroxyflutamide] |  | could partially block
